Measurements published in US11771694B2, “Arylamide compounds for treatment and prevention of viral infections” (priority 2020, dated 2023).
≈ marks a conversion by molar mass, not a printed value. Like-named read-outs stand apart in the source and are kept apart here.

Tests used:
[1] = test system: stationary phase cultures of MSSA and MRSA; assay: Time-kill against stationary phase cultures of MSSA and MRSA; format: cell-based, Staph. aureus; details: up to 10× the MIC; data not shown
[2] = test system: Proteus vulgaris; assay: Broth microdilution MIC; format: cell-based
[3] = test system: Klebsiella oxtoca; assay: Broth microdilution MIC; format: cell-based
[4] = test system: Escherichia coli; assay: Broth microdilution MIC; format: cell-based
[5] = test system: Serratia marcescens; assay: Broth microdilution MIC; format: cell-based
[6] = test system: Staph. spp. coagulase-; assay: Broth microdilution MIC; format: cell-based
[7] = test system: Morganella morganii; assay: Broth microdilution MIC; format: cell-based
[8] = test system: Strept. pyogenes; assay: Broth microdilution MIC; format: cell-based; details: Streptococcus pyogenes
[9] = test system: Proteus mirabilis; assay: Broth microdilution MIC; format: cell-based
[10] = test system: Klebsiella pneumoniae; assay: Broth microdilution MIC; format: cell-based
[11] = test system: Entero. faecalis; assay: Broth microdilution MIC; format: cell-based; details: Enterococcus faecalis
[12] = test system: Stenotrophomonas maltophilia; assay: Broth microdilution MIC; format: cell-based
[13] = test system: Entero. faecium (VRE); assay: Broth microdilution MIC; format: cell-based; details: Enterococcus faecium
[14] = test system: Providencia stuartii; assay: Broth microdilution MIC; format: cell-based
[15] = test system: Strept. pneumoniae; assay: Broth microdilution MIC; format: cell-based; details: Streptococcus pneumoniae
[16] = test system: Citrobacter koseri; assay: Broth microdilution MIC; format: cell-based
[17] = test system: Acinetobacter spp.; assay: Broth microdilution MIC; format: cell-based; details: 2-3 isolates/organism
[18] = test system: Citrobacter fruendi; assay: Broth microdilution MIC; format: cell-based
[19] = test system: Staph. epidermidis; assay: Broth microdilution MIC; format: cell-based; details: Staphylococcus epidermidis
[20] = test system: Strept. viridians; assay: Broth microdilution MIC; format: cell-based
[21] = test system: Staph. saprophyticus; assay: Broth microdilution MIC; format: cell-based; details: Staphylococcus saprophyticus
[22] = test system: Staph. aureus (MRSA); assay: Broth microdilution MIC; format: cell-based; details: Staphylococcus aureus
[23] = test system: Pseud. aeruginosa; assay: Broth microdilution MIC; format: cell-based; details: Pseudomonas aeruginosa
[24] = test system: Strept. agalactiae; assay: Broth microdilution MIC; format: cell-based; details: Streptococcus agalactiae
[25] = test system: Enterobacter cloacae; assay: Broth microdilution MIC; format: cell-based
[26] = test system: SARS-CoV-2; format: cell-based; details: Calu-3; MOI 0.05; 24 hpi
[27] = test system: dextran sulfate sodium (DSS) induced colitis; assay: Mouse DSS colitis model; format: in vivo, mice; details: mouse, in vivo
[28] = test system: Haemophilus influenzae; assay: Broth microdilution MIC; format: cell-based
[29] = 2-3 isolates/organism, read-out: MIC

CCCCCCCCCC(=O)N[C@@H](Cc1c[nH]c2ccccc12)C(=O)N[C@H](CC(N)=O)C(=O)N[C@@H](CC(=O)O)C(=O)N[C@@H]1C(=O)NCC(=O)N[C@@H](CCCN)C(=O)N[C@@H](CC(=O)O)C(=O)N[C@H](C)C(=O)N[C@@H](CC(=O)O)C(=O)NCC(=O)N[C@H](CO)C(=O)N[C@@H]([C@H](C)CC(=O)O)C(=O)N[C@@H](CC(=O)c2ccccc2N)C(=O)O[C@@H]1C [Daptomycin, reference compound] was tested, and the “antimicrobial activity against stationary phase cultures” value [1] was “little antimicrobial activity”.

For CC(=O)NC[C@H]1CN(c2ccc(N3CCOCC3)c(F)c2)C(=O)O1 [Linezolid], the MIC [2, 29] was > 16 µg/mL, the MIC ([3]; Klebsiella oxtoca, 2-3 isolates/organism, read-out: MIC) was > 16 µg/mL and the MIC [4, 29] was > 16 µg/mL. For the same molecule, the MIC [5, 29] was > 16 µg/mL, the MIC ([6]; Staph. spp. coagulase-, 2-3 isolates/organism, read-out: MIC) was 1 µg/mL (≈ 2.96 µM) and the MIC [7, 29] was > 16 µg/mL. The MIC ([8]; Strept. pyogenes, 2-3 isolates/organism, read-out: MIC) was 1 µg/mL (≈ 2.96 µM), the MIC [9, 29] was > 16 µg/mL and the MIC [10, 29] was > 16 µg/mL. The MIC ([11]; Entero. faecalis, 2-3 isolates/organism, read-out: MIC) was 1 to 2 µg/mL (≈ 2.96 to 5.93 µM), the MIC [12, 29] was > 16 µg/mL and the MIC ([13]; Entero. faecium (VRE), 2-3 isolates/organism, read-out: MIC) was 1 to 2 µg/mL (≈ 2.96 to 5.93 µM). For the same molecule, the MIC [14, 29] was > 16 µg/mL, the MIC ([15]; Strept. pneumoniae, 2-3 isolates/organism, read-out: MIC) was 1 µg/mL (≈ 2.96 µM) and the MIC [16, 29] was > 16 µg/mL. For the same molecule, the MIC [17] was > 16 µg/mL, the MIC ([18]; Citrobacter fruendi, 2-3 isolates/organism, read-out: MIC) was > 16 µg/mL and the MIC ([19]; Staph. epidermidis, 2-3 isolates/organism, read-out: MIC) was 0.5 to 1 µg/mL (≈ 1.48 to 2.96 µM). For the same molecule, the MIC ([20]; Strept. viridians, 2-3 isolates/organism, read-out: MIC) was 1 µg/mL (≈ 2.96 µM), the MIC ([21]; Staph. saprophyticus, 2-3 isolates/organism, read-out: MIC) was 1 to 2 µg/mL (≈ 2.96 to 5.93 µM) and the MIC ([22]; Staph. aureus (MRSA), 2-3 isolates/organism, read-out: MIC) was 1 to 2 µg/mL (≈ 2.96 to 5.93 µM). The MIC ([23]; Pseud. aeruginosa, 2-3 isolates/organism, read-out: MIC) was > 16 µg/mL, the MIC ([24]; Strept. agalactiae, 2-3 isolates/organism, read-out: MIC) was 1 µg/mL (≈ 2.96 µM) and the MIC [25, 29] was > 16 µg/mL.

For NC(=O)c1nc(F)c[nH]c1=O [favipiravir, reference compound], the “inhibition of infectious titer, each drug alone” value [26] was ≤ 80%.

Nc1ccc(O)c(C(=O)O)c1 [5-ASA, reference compound] was tested, and the “mean reduction in IL-1β in distal colon tissue” value [27] was 33% and the “mean reduction in IL-6 in distal colon tissue” value [27] was 86%.

With CC(C)(O/N=C(\C(=O)N[C@@H]1C(=O)N2C(C(=O)[O-])=C(C[n+]3ccccc3)CS[C@H]12)c1csc(N)n1)C(=O)O [Ceftazidime] the MIC [2] was 0.12 µg/mL (≈ 0.22 µM), the MIC ([3]; Klebsiella) was 0.06 to 0.12 µg/mL (≈ 0.11 to 0.22 µM) and the MIC [14] was 0.12 to 64 µg/mL (≈ 0.22 to 117 µM). The MIC [19] was 16 to 32 µg/mL (≈ 29.3 to 58.5 µM).

CN[C@H](CC(C)C)C(=O)N[C@H]1C(=O)N[C@@H](CC(N)=O)C(=O)N[C@H]2C(=O)N[C@H]3C(=O)N[C@H](C(=O)N[C@H](C(=O)O)c4cc(O)cc(O)c4-c4cc3ccc4O)[C@H](O)c3ccc(c(Cl)c3)Oc3cc2cc(c3O[C@@H]2O[C@H](CO)[C@@H](O)[C@H](O)[C@H]2O[C@H]2C[C@](C)(N)[C@H](O)[C@H](C)O2)Oc2ccc(cc2Cl)[C@H]1O [Vancomycin] was tested, and the MIC [2] was > 128 µg/mL, the MIC ([3]; Klebsiella) was > 128 µg/mL and the MIC [4] was > 128 µg/mL. For the same molecule, the MIC [5] was > 128 µg/mL, the MIC [6] was 1 to 2 µg/mL (≈ 0.69 to 1.38 µM) and the MIC [7] was > 128 µg/mL. The MIC [8] was 0.5 µg/mL (≈ 0.345 µM), the MIC [9] was > 128 µg/mL and the MIC [10] was > 128 µg/mL. For the same molecule, the MIC [11] was 1 µg/mL (≈ 0.69 µM), the MIC [12] was 32 to 128 µg/mL (≈ 22.1 to 88.3 µM) and the MIC ([13]; VRE) was > 128 µg/mL. For the same molecule, the MIC [14] was > 128 µg/mL, the MIC [15] was 0.5 µg/mL (≈ 0.345 µM) and the MIC [16] was > 128 µg/mL. For the same molecule, the MIC ([18]; Citrobacter) was > 128 µg/mL, the MIC [19] was 2 µg/mL (≈ 1.38 µM) and the MIC [20] was 0.5 to 1 µg/mL (≈ 0.345 to 0.69 µM). The MIC [21] was 1 to 2 µg/mL (≈ 0.69 to 1.38 µM), the MIC ([22]; MRSA) was 0.5 to 1 µg/mL (≈ 0.345 to 0.69 µM) and the MIC [23] was > 128 µg/mL. For the same molecule, the MIC [24] was 0.5 µg/mL (≈ 0.345 µM), the MIC [25] was > 128 µg/mL and the MIC [28] was 128 µg/mL (≈ 88.3 µM).
